Reference: US7396842B2, “Five-membered cyclic compounds” (Dianippon Sumitomo Pharma Co., Ltd., priority 2002, dated 2008)

target: T1, SMBS on rat lung membranes (Rattus norvegicus, UniProt A0A8I6A822); assay: Receptor binding of the compound in rat lung membranes ([125I]-iodo-cyanopindolol ligand binding assay; Experiments 1 and 4); conditions: Table 42; concentration tested 30 μM; rat lung membranes; Experiment 4; read-out: Binding Activity (30 μM)
T1 construct: from tissue; host or cells: rat lung membranes (SD male rats)
Description: Evaluation Test on Receptor Binding of the Compound in Rat Lung Membranes:
This experiment was carried out according to the method disclosed in Sugasawa et al., (Sugasawa, T. et al., J. Biol. Chem., 272, 21244-21252(1997)).
Preparation of Rat Lung Membranes
The air tube and blood vessels were removed from the lung excised from SD male rats (7-weeks old when used, purchased from Charles River Japan, Inc.), and the lung was chopped, and washed with ice-cold tris-saline buffer (10 mM Tris-HCl, 154 mM sodium chloride, pH 7.4). The lung was homogenized by PHYSCOTRON (maximum speed: 1 minute) in a buffer for homogenization (tris-saline buffer containing 1 mM ethylenediaminetetraacetate (EDTA), 1 mM 4-(2-aminoethyl)-benzenesulfonyl fluoride (AEBSF), 5 μg/ml aprotinin, 5 μg/ml leupeptin) under ice-cooling. The mixture was centrifuged at a low speed (1500×g, 20 minutes, 4° C.), and the supernatant was super-centrifuged (100000×g, 20 minutes, 4° C.). The pellets thus obtained were suspended in tris-saline buffer, and kept at −80° C. The concentration of protein was measured by a Protein Assay Kit manufactured by Bio-Rad using bovine serum albumin (BSA) as standard.
To each well of a protein-non-adsorbent round-bottom 96-well assay plate (purchased from IWAKI GLASS CO., LTD.) was added tris-saline buffer (200 μl) containing 1 nM [^125I]-iodo-cyanopindolol (purchased from Amarsham), 10 μM serotonin, 20 μM dl-propranol, 10 μM phentoramine, 1.1 mM ascorbic acid and 100 μg lung membranes, and the mixture was mixed well by pipetting, and the plate was incubated at 37° C. for 30 minutes. Test compounds were dissolved in 100% dimethylsulfoxide, and added to the plate in an amount of 2 μl (final concentration of DMSO: 1%). In order to obtain non-specific binding, L-threo-3-(3,4-dihydroxyphenyl)-N-[3-(4-fluorophenyl)propyl]-serinepyrrolidinamide was added at a final concentration of 100 μM instead of test compound. During this period, 0.3% polyethyleneimine (PEI)/tris-saline buffer (100 μl) was added to a multiscreen plate (96-well B-glassfiber, milipore Cat. No. MAFB NOB10) and the plate was incubated for more than 30 minutes. The plate was washed by vacuum filtration (by adding ice-cold tris-saline buffer (200 μl) and then vacuum filtration), and the reaction solution on the 96-well assay plate was washed by vacuum filtration onto the multiscreen plate for four times. The B-glassfiber paper filter at the bottom of the multiscreen plate was punched out, and the γ-ray amount of [^125I]-iodo-cyanopindolol being trapped onto the paper filter was measured as binding amount. The binding amount in the presence of DMSO (final concentration: 1%) was regarded as total binding, and the binding in the presence of L-threo-3-(3,4-dihydroxyphenyl) -N-[3-(4-fluorophenyl)-propyl]serinepyrrolidinamide was regarded as non-specific binding. The value which is calculated by subtracting non-specific binding from total binding is specific binding. The binding activity of the compound can be calculated by the following equation, and expressed in a ratio of inhibiting the specific binding of [^125I]-iodo-cyanopindorol to SMBS on rat lung membranes.
In the same manner to in Experiment 1, the receptor binding assay was carried out on the present compounds by using the rat lung membranes.

T1 sequence (A0A8I6A822 27-587): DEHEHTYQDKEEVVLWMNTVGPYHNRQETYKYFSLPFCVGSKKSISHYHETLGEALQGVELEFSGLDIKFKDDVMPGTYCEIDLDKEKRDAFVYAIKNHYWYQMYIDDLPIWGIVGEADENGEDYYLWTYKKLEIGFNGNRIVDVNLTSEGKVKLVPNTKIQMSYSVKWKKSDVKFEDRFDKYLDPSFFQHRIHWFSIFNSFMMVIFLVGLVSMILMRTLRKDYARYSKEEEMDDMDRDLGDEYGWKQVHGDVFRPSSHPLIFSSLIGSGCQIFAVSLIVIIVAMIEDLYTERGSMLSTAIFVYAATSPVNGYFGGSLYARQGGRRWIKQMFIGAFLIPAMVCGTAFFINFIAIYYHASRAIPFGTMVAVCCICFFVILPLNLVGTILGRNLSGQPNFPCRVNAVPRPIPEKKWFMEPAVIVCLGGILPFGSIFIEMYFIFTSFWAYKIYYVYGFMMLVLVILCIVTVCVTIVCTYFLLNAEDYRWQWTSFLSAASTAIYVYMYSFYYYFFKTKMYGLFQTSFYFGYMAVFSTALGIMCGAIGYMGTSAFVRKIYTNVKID

Compound	inhibition at 30 µM
CCNC(=O)NCCn1c(-c2ccc(N3CCOCC3)cc2)cs/c1=N\c1ccc(F)cc1 [Example 280]	99%
CCCCCCNC(=O)NCCCn1c(-c2ccc(N3CCOCC3)cc2)cs/c1=N\c1ccc(F)cc1 [Example 284]	77%
O=C(NCCCn1c(-c2ccc(N3CCOCC3)cc2)cs/c1=N\c1ccc(F)cc1)Nc1ccc(F)cc1 [Example 288]	34%
CCNC(=O)NCCCCCn1c(-c2ccc(N3CCOCC3)cc2)cs/c1=N\c1ccc(F)cc1 [Example 295]	18%
CCNC(=O)NCCCn1c(-c2ccc(N3CCOCC3)cc2)cs/c1=N\c1ncccn1 [Example 297]	75%

Further lines, results first:

inhibition at 30 µM	Compound
35%	O=C(NCCCn1c(-c2ccc(N3CCOCC3)cc2)cs/c1=N\c1ccc(F)cc1)NC1CCCCC1 [Example 285]
98%	O=C(NCCCn1c(-c2ccc(N3CCOCC3)cc2)cs/c1=N\c1ccc(F)cc1)NCc1ccccc1 [Example 290]
68%	COc1ccc(NC(=O)NCCCn2c(-c3ccc(N4CCOCC4)cc3)cs/c2=N\c2ccc(F)cc2)cc1 [Example 291]
101%	CCNC(=O)NCCCn1c(-c2ccc(N3CCOCC3)cc2)cs/c1=N\c1ccc(OC)cn1 [Example 298]

same assay, conditions: Table 43; concentration tested 30 μM; rat lung membranes; Experiment 4; read-out: Binding Activity (30 μM)

Compound	inhibition at 30 µM
CCNC(=O)NCCCn1c(CN(C)Cc2ccc(Cl)cc2)cs/c1=N\c1ccc(OC(F)(F)F)cc1 [Example 303]	23%
CCNC(=O)NCCCn1c(COCc2ccccc2)cs/c1=N\c1ccc(OC(F)(F)F)cc1 [Example 305]	13%
CCNC(=O)NCCCn1c(COCc2ccccc2)cs/c1=N\c1ccc(OC)cn1 [Example 307]	48%
CN(C)C(=O)NCCCn1c(-c2ccc3c(c2)OCO3)cs/c1=N\c1ccc(OC(F)(F)F)cc1 [Example 309]	100%
COCCNCCCn1c(-c2ccc(F)cc2)cs/c1=N\c1ccc(Cl)cc1OC [Example 315]	115%
COCCOCCNCCCn1c(-c2ccc(F)cc2)cs/c1=N\c1ccc(Cl)cc1OC [Example 316]	102%
CCNC(=O)CNCCCn1c(-c2ccc(N3CCOCC3)cc2)csc1=Nc1ccc(F)cc1 [Example 335, N^1-ethyl-N^2-{3-[2-[(4-fluorophenyl)imino]-4-[4-(morpholino)phenyl]-thiazol-3(2H)-yl]propyl}glycinamide]	101%
CN(C)C(=O)CNCCCn1c(-c2ccc(N3CCOCC3)cc2)cs/c1=N\c1ccc(F)cc1 [Example 342]	56%
O=C(CNCCCn1c(-c2ccc(N3CCOCC3)cc2)cs/c1=N\c1ccc(F)cc1)NCCO [Example 344]	101%
COc1ccc(C/N=c2\scc(-c3ccc(OC(F)(F)F)cc3)n2CCCN)c(OC)c1 [Example 362, 3-[2-[(2,4-Dimethoxybenzyl)imino]-4-[4-(trifluoromethoxy)phenyl]-1,3-thiazol-3(2H)-yl]-1-propanamine]	117%
O=C(CN1CCCC1)NCCCn1c(-c2ccc(OC(F)(F)F)cc2)cs/c1=N\Cc1ccc(Cl)cc1 [Example 384, N-{3-[2-[(4-Chlorobenzyl)imino]-4-[4-(trifluoromethoxy)phenyl]-1,3-thiazol-3(2H)-yl]propyl}-2-(1-pyrrolidinyl)acetamide]	107%
COCCNC(=O)NCCCn1c(-c2ccc(OC(F)(F)F)cc2)cs/c1=N\Cc1ccc(Cl)cc1 [Example 409, N-{3-[2-[(4-Chlorobenzyl)imino]-4-[4-(trifluoromethoxy)phenyl]-1,3-thiazol-3(2H)-yl]propyl}-N′-(2-methoxyethyl)urea]	89%

Next, values leading:

inhibition at 30 µM	Compound
93%	CCNC(=O)NCCCn1c(-c2ccc(N3CCOCC3)cc2)cs/c1=N\c1nccs1 [Example 299]
112%	CCNC(=S)NCCCn1c(-c2ccc(N3CCOCC3)cc2)cs/c1=N\c1ccc(F)cc1 [Example 312]
76%	O=C(O)CNCCCn1c(-c2ccc(N3CCOCC3)cc2)csc1=Nc1ccc(F)cc1 [Example 329, N-{3-[2-[(4-Fluorophenyl)imino]-4-[4-(morpholino)phenyl]thiazol-3(2H)-yl]propyl}glycine]
107%	CCN(CC)C(=O)CNCCCn1c(-c2ccc(N3CCOCC3)cc2)cs/c1=N\c1ccc(F)cc1 [Example 343]
100%	CN(C)CCNC(=O)NCCCn1c(-c2ccc(N3CCOCC3)cc2)csc1=Nc1ccc(F)cc1 [Example 349, N-[2-(Dimethylamino)ethyl]-N′-{3-[2-[(4-fluorophenyl)imino]-4-[4-(morpholino)phenyl]thiazol-3(2H)-yl]propyl}urea]
89%	COCCNC(=O)NCCCn1c(-c2ccc(N3CCOCC3)cc2)cs/c1=N\c1ccc(F)cc1 [Example 355]
86%	O=C(CN1CCCC1)NCCCn1c(-c2ccc(N3CCOCC3)cc2)csc1=Nc1ccc(F)cc1 [Example 357, N-{3-[2-[(4-Fluorophenyl)imino]-4-[4-(morpholino)phenyl]thiazol-3(2H)-yl]propyl}-2-(1-pyrrolidinyl)acetamide]
82%	O=C(CNc1ccccc1)NCCCn1c(-c2ccc(N3CCOCC3)cc2)cs/c1=N\c1ccc(F)cc1 [Example 359]
88%	CN(C)CC(=O)NCCCn1c(-c2ccc(N3CCOCC3)cc2)cs/c1=N\c1ccc(F)cc1 [Example 361]
90%	COc1ccc(C/N=c2\scc(-c3ccc(OC(F)(F)F)cc3)n2CCCNC(C)=O)c(OC)c1 [Example 373, N-{3-[2-[(2,4-dimethoxybenzyl)imino]-4-[4-(trifluoromethoxy)phenyl]-1,3-thiazol-3(2H)-yl]propyl}acetamide]
84%	COCC(=O)NCCCn1c(-c2ccc(OC(F)(F)F)cc2)cs/c1=N\Cc1ccc(OC)cc1OC [Example 383, N-{3-[2-[(2,4-Dimethoxybenzyl)imino]-4-[4-(trifluoromethoxy)phenyl]-1,3-thiazol-3(2H)-yl]propyl}-2-methoxyacetamide]
79%	CCNC(=O)NCCCn1c(-c2ccc(F)cc2)cs/c1=N\Cc1ccc(Cl)cc1OC [Example 402, N-{3-[2-[(4-Chloro-2-methoxybenzyl)imino]-4-(4-fluorophenyl)-1,3-thiazol-3(2H)-yl]propyl}-N′-ethylurea]
118%	COCCNCCCn1c(-c2ccc(F)cc2)cs/c1=N\Cc1ccc(Cl)cc1OC [Example 411, 3-[2-[(4-Chloro-2-methoxybenzyl)imino]-4-(4-fluorophenyl)-1,3-thiazol-3(2H)-yl]-(2-methoxyethyl)-1-propanamine]

same assay, conditions: Table 44; concentration tested 30 μM; rat lung membranes; Experiment 4; read-out: Binding Activity (30 μM)

Compound	inhibition at 30 µM
O=C(NCCCn1c(-c2ccc(OC(F)(F)F)cc2)cs/c1=N\Cc1ccc(Cl)cc1)N1CCOCC1 [Example 405]	115%
O=C(NCCCn1c(-c2ccc(OC(F)(F)F)cc2)cs/c1=N\Cc1ccc(Cl)cc1)NCCN1CCCC1 [Example 408]	121%

Further lines, results first:

inhibition at 30 µM	Compound
100%	CCOC(=O)NCCCn1c(-c2ccc(OC(F)(F)F)cc2)cs/c1=N\Cc1ccc(Cl)cc1 [Example 368]
80%	O=C(NCCCn1c(-c2ccc(OC(F)(F)F)cc2)cs/c1=N\Cc1ccc(Cl)cc1)Nc1ccc(F)cc1 [Example 393]
37%	CCNC(=O)NCCCn1c(-c2ccc(OC)cc2)cs/c1=N\CCc1ccncc1 [Example 398]
109%	CN(C)C(=O)NCCCn1c(-c2ccc(OC(F)(F)F)cc2)cs/c1=N\Cc1ccc(Cl)cc1 [Example 404]
96%	COc1ccc(C/N=c2\scc(-c3ccc(OC(F)(F)F)cc3)n2CCCNCC(F)(F)F)c(OC)c1 [Example 413]

same assay, conditions: read-out: Binding Activity (30 μM)

Compound	inhibition at 30 µM
O=C(NCCCl)NCCCn1c(-c2ccc(OC(F)(F)F)cc2)cs/c1=N\Cc1ccc(Cl)cc1 [Example 390]	120%
